Assay results reported in ChEMBL document CHEMBL3885861, “Open TG-GATES”.

Species: Rattus norvegicus
Assay: Open TG-GATES - Regimen: Daily Repeat
Format: toxicity, organism-based, Sprague-Dawley
Set-up: regimen Daily Repeat, gender Male, age 6 weeks
Conditions: in vivo, po, 1000 mg/kg, route gavage, dose level High; for APTT / Bas / Eos / Fbg / Hb / Ht / Lym / MCHC / MCV / Mono / Neu / PT / Plat / RBC / Ret / WBC: tissue Blood; for KIDNEY_L / KIDNEY_R / KIDNEY_TOTAL: tissue Kidney; for LIVER: tissue Liver; for ALP / ALT / AST / BUN / CRE / Ca / Cl / DBIL / GLC / IP / K / LDH / Na / PL / RALB / TBIL / TG / TP / gamma-GTP: tissue Plasma

## CN(C)C(=N)N=C(N)N [METFORMIN]
72 h, time 3 day
  TERMINAL_BW: 213.8 g
  APTT: 17.6 s
  Bas: 0%
  Eos: 1%
  Fbg: 223.8 mg/dL
  Hb: 13.4 g/dL
  Ht: 39.4%
  Lym: 72.8%
  MCHC: 34.1%
  MCV: 63.1 fL
  Mono: 4%
  Neu: 22%
  PT: 12.4 s
  Plat: 121.1 x10_4/uL
  RBC: 624.8 x10_4/ul
  Ret: 5.5%
  WBC: 107 x10_2/uL
  KIDNEY_L: 0.9 g
  KIDNEY_R: 0.9 g
  KIDNEY_TOTAL: 1.8 g
  LIVER: 11.6 g
  ALP: 1276.4 IU/L
  ALT: 37.4 IU/L
  AST: 74 IU/L
  BUN: 16.6 mg/dL
  CRE: 0.2 mg/dL
  Ca: 11.1 mg/dL
  Cl: 104 meq/L
  DBIL: 0.012 mg/dL
  GLC: 180.2 mg/dL
  IP: 8.7 mg/dL
  K: 4.1 meq/L
  LDH: 63.4 IU/L
  Na: 140.2 meq/L
  PL: 137.8 mg/dL
  RALB: 2.5 g/dL
  TBIL: 0.032 mg/dL
  TG: 95.8 mg/dL
  TP: 5.4 g/dL
  gamma-GTP: 1.2 IU/L
[…], time 7 day
  TERMINAL_BW: 243 g
  APTT: 15.3 s
  Bas: 0.2%
  Eos: 0.6%
  Fbg: 254.8 mg/dL
  Hb: 13.8 g/dL
  Ht: 41%
  Lym: 80.4%
  MCHC: 33.7%
  MCV: 61.8 fL
  Mono: 3.2%
  Neu: 15.2%
  PT: 12.1 s
  Plat: 116.4 x10_4/uL
  RBC: 664 x10_4/ul
  Ret: 5.5%
  WBC: 101.5 x10_2/uL
  KIDNEY_L: 1.1 g
  KIDNEY_R: 1 g
  KIDNEY_TOTAL: 2.1 g
  LIVER: 12.1 g
  ALP: 1316.4 IU/L
  ALT: 44.4 IU/L
  AST: 82.2 IU/L
  BUN: 15 mg/dL
  CRE: 0.2 mg/dL
  Ca: 10.9 mg/dL
  Cl: 104.2 meq/L
  DBIL: 0.012 mg/dL
  GLC: 193.2 mg/dL
  IP: 8.4 mg/dL
  K: 4.4 meq/L
  LDH: 57.4 IU/L
  Na: 140.8 meq/L
  PL: 141.6 mg/dL
  RALB: 2.6 g/dL
  TBIL: 0.024 mg/dL
  TG: 92.2 mg/dL
  TP: 5.5 g/dL
  gamma-GTP: 1 IU/L
[…], time 14 day
  TERMINAL_BW: 288.9 g
  APTT: 17 s
  Bas: 0%
  Eos: 0.8%
  Fbg: 252.2 mg/dL
  Hb: 14.4 g/dL
  Ht: 41.7%
  Lym: 75.4%
  MCHC: 34.5%
  MCV: 59.5 fL
  Mono: 3.4%
  Neu: 19.6%
  PT: 12.2 s
  Plat: 124 x10_4/uL
  RBC: 702 x10_4/ul
  Ret: 4.4%
  WBC: 121.9 x10_2/uL
  KIDNEY_L: 1.2 g
  KIDNEY_R: 1.1 g
  KIDNEY_TOTAL: 2.3 g
  LIVER: 14.4 g
  ALP: 1249.8 IU/L
  ALT: 39 IU/L
  AST: 75 IU/L
  BUN: 17.6 mg/dL
  CRE: 0.2 mg/dL
  Ca: 11 mg/dL
  Cl: 103.6 meq/L
  DBIL: 0.008 mg/dL
  GLC: 188.6 mg/dL
  IP: 6.9 mg/dL
  K: 4.1 meq/L
  LDH: 61.2 IU/L
  Na: 141.4 meq/L
  PL: 164 mg/dL
  RALB: 2.8 g/dL
  TBIL: 0.026 mg/dL
  TG: 148.6 mg/dL
  TP: 6 g/dL
  gamma-GTP: 1.2 IU/L
[…], time 28 day
  TERMINAL_BW: 357 g
  APTT: 17.8 s
  Bas: 0%
  Eos: 1.2%
  Fbg: 258.6 mg/dL
  Hb: 15 g/dL
  Ht: 43.7%
  Lym: 74.6%
  MCHC: 34.3%
  MCV: 57.7 fL
  Mono: 3.2%
  Neu: 20.6%
  PT: 12 s
  Plat: 105.5 x10_4/uL
  RBC: 757.4 x10_4/ul
  Ret: 2.6%
  WBC: 108.4 x10_2/uL
  KIDNEY_L: 1.4 g
  KIDNEY_R: 1.4 g
  KIDNEY_TOTAL: 2.8 g
  LIVER: 16.5 g
  ALP: 1090.4 IU/L
  ALT: 41.6 IU/L
  AST: 71.4 IU/L
  BUN: 17.4 mg/dL
  CRE: 0.2 mg/dL
  Ca: 11.1 mg/dL
  Cl: 104 meq/L
  DBIL: 0.014 mg/dL
  GLC: 194.2 mg/dL
  IP: 6.7 mg/dL
  K: 3.9 meq/L
  LDH: 50.2 IU/L
  Na: 145.2 meq/L
  PL: 152.6 mg/dL
  RALB: 2.7 g/dL
  TBIL: 0.034 mg/dL
  TG: 148 mg/dL
  TP: 6 g/dL
  gamma-GTP: 1 IU/L
